Consider ten compounds from ChEMBL document CHEMBL1201862, “PubChem BioAssay data set” (2004).

Where a name gives a salt, the structure may show the parent alone.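 1) Cells in 96-well plates. 2) Compound, 48 h, 5 concentrations. 3) Linear interpolation between surrounding doses. 4) Unreached endpoint = highest concentration. GI50: concentration for 50% inhibition of growth.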 Active and inactive are the calls of the source. Cut-off read from the data, not from the text of the source: active = GI50 up to about 1.1 µM and inactive = higher.

Assay in all cases: NCI anticancer screen, dose series, 48 h
For experiment [1], the system named is 786-0.
Experiment [2] concerns A549.
Experiment [3] relates to CCRF-CEM.
Experiment [4] has as its system COLO 205.
In experiment [5] the test system is DU-145.
The subject of experiment [6] is EKVX.
Experiment [7] has as its system HOP-62.
The subject of experiment [8] is KM12.
In experiment [9] the test system is LOX IMVI.
Experiment [10] concerns MDA-MB-435.
Experiment [11] has as its system MDA-N.
Experiment [12] deals with MOLT-4.
Experiment [13] has as its system NCI-H226.
For experiment [14], the system named is NCI-H23.
Experiment [15] concerns NCI-H460.
The subject of experiment [16] is OVCAR-3.
Experiment [17] concerns OVCAR-5.
Experiment [18] has as its system SF-295.
In experiment [19] the test system is SK-MEL-2.
The test system of experiment [20] is UO-31.

Regarding `Cc1cc(C)c(/C=C2\C(=O)Nc3ccccc32)[nH]1` [SEMAXANIB], the GI50 in experiment [1] was > 100 µM (inactive); in experiment [2], > 65.3 µM (inactive); in [3], > 100 µM (inactive); in [4] it was > 100 µM (inactive); in experiment [5], > 83 µM (inactive); in experiment [6] it was 2.81 µM (inactive). Also, the GI50 in [7] was > 82.2 µM (inactive); in experiment [8], 0.998 µM (active); in experiment [9], > 100 µM (inactive); in [10] it was > 96.4 µM (inactive); in experiment [11], > 95.9 µM (inactive); in [12], > 78.2 µM (inactive). Moreover, the GI50 in experiment [13] is 1.22 µM (inactive); in experiment [14], 7.96 µM (inactive); in experiment [15], > 57.8 µM (inactive); in [16], > 100 µM (inactive); in [17], > 69 µM (inactive); in experiment [18] it was > 100 µM (inactive). The GI50 was > 75.9 µM (inactive) in [19] and 34.5 µM (inactive) in experiment [20].

With `O=S(=O)(O)c1ccc2cc(/N=N\c3cc(S(=O)(=O)O)c4cccnc4c3O)ccc2c1`, the GI50 in experiment [1] is > 100 µM (inactive); in [2], > 100 µM (inactive); in [3] it was 29.7 µM (inactive); in [4] it was > 100 µM (inactive); in experiment [5], > 100 µM (inactive); in [6], > 100 µM (inactive). The GI50 in experiment [7], in [8], in experiment [9], in experiment [10], in experiment [11] and in experiment [12] was > 100 µM (inactive) throughout. Moreover, the GI50 in experiment [13], in experiment [14], in experiment [15], in [16], in experiment [17] and in [18] was > 100 µM (inactive) in each case. Besides, the GI50 in experiment [19] and in experiment [20] was > 100 µM (inactive) throughout.

Consider `CCCCOC(=O)CC(CC(=O)OCCCC)(OC(C)=O)C(=O)OCCCC` [ACETYLTRIBUTYL CITRATE], for which the GI50 in experiment [1] is > 200 µM (inactive); in experiment [2] it was 96.8 µM (inactive); in [3] it was 76.9 µM (inactive); in [4], 60.1 µM (inactive); in experiment [5], > 106 µM (inactive); in experiment [6], > 101 µM (inactive). The GI50 is > 200 µM (inactive) in experiment [7]; > 112 µM (inactive) in experiment [8]; 150 µM (inactive) in [9]; > 178 µM (inactive) in experiment [10]; > 170 µM (inactive) in experiment [11]; 17.2 µM (inactive) in [12]. In addition, the GI50 was 24.6 µM (inactive) in experiment [13]; 60.8 µM (inactive) in [14]; 162 µM (inactive) in [15]; > 200 µM (inactive) in experiment [16]; > 200 µM (inactive) in experiment [17]; 91.2 µM (inactive) in [18]. Also, the GI50 was > 200 µM (inactive) in [19] and 39.6 µM (inactive) in [20].

Take `Nc1nc(Cl)cc(NCC2(CCO)CCC2)n1`: the GI50 in [1] is > 100 µM (inactive); in experiment [2], > 100 µM (inactive); in [3], > 100 µM (inactive); in [5], > 100 µM (inactive); in experiment [6] it was 59.4 µM (inactive); in experiment [7], > 100 µM (inactive). Also, the GI50 in experiment [8], in experiment [9], in experiment [10], in experiment [11], in experiment [12] and in [13] was > 100 µM (inactive) each time. The GI50 in experiment [14] is > 100 µM (inactive); in [15], > 100 µM (inactive); in [16], > 100 µM (inactive); in experiment [17], > 100 µM (inactive); in experiment [18] it was > 10 µM (inactive); in [19], > 100 µM (inactive). Further, the GI50 in experiment [20] is > 100 µM (inactive).

Regarding `CS(=O)(=O)OCCCNCCCOS(C)(=O)=O`, the GI50 in experiment [1] is 881 µM (inactive); in experiment [2] it was 741 µM (inactive); in [3], 262 µM (inactive); in [4], 1730 µM (inactive); in experiment [5] it was 627 µM (inactive); in experiment [6], 1810 µM (inactive). Also, the GI50 was 729 µM (inactive) in experiment [7]; 2080 µM (inactive) in [8]; 569 µM (inactive) in experiment [9]; 2340 µM (inactive) in experiment [10]; 2350 µM (inactive) in [11]; 189 µM (inactive) in experiment [12]. In addition, the GI50 in [13] was 1680 µM (inactive); in experiment [14] it was 904 µM (inactive); in experiment [15], 156 µM (inactive); in [16], 2630 µM (inactive); in [17] it was 2130 µM (inactive); in [18], 526 µM (inactive). Moreover, the GI50 was 1940 µM (inactive) in experiment [19] and 1990 µM (inactive) in [20].

Consider `CC1(C)CC(=O)c2c(nc3c4c([nH]c(-c5ccc([N+](=O)[O-])cc5)c24)CC(C)(C)C3)C1`, for which the GI50 in experiment [1] is 21.3 µM (inactive); in experiment [2], 27.6 µM (inactive); in experiment [3], 10.1 µM (inactive); in [4] it was 17 µM (inactive); in [5], 81.8 µM (inactive); in experiment [6], 61.4 µM (inactive). For the same compound, the GI50 is > 100 µM (inactive) in experiment [7]; 37.4 µM (inactive) in experiment [8]; 31.3 µM (inactive) in experiment [9]; 24.7 µM (inactive) in experiment [10]; 33 µM (inactive) in [11]; 4.14 µM (inactive) in experiment [12]. Moreover, the GI50 in [13] is 43.8 µM (inactive); in experiment [14] it was 48.5 µM (inactive); in experiment [15], 38.5 µM (inactive); in experiment [16] it was 85.5 µM (inactive); in experiment [17], 58.1 µM (inactive); in [18], 30 µM (inactive). Further, the GI50 is 35.2 µM (inactive) in [19] and 29.6 µM (inactive) in [20].

In the case of `O=C(Cc1ccccc1)Nc1nc2ccc(Cl)cc2c2nc(-c3ccco3)nn12`, the GI50 in [1] is 10.1 µM (inactive); in experiment [2] it was > 100 µM (inactive); in experiment [3] it was > 100 µM (inactive); in experiment [4] it was > 100 µM (inactive); in experiment [5], > 100 µM (inactive); in [6] it was > 70.8 µM (inactive). The GI50 in experiment [7] was 16.4 µM (inactive); in [8], > 100 µM (inactive); in experiment [9], > 100 µM (inactive); in [10], > 100 µM (inactive); in [11], > 100 µM (inactive); in experiment [12] it was > 100 µM (inactive). The GI50 was > 35.6 µM (inactive) in [13]; 47.1 µM (inactive) in experiment [14]; > 100 µM (inactive) in experiment [15]; > 100 µM (inactive) in [16]; > 100 µM (inactive) in experiment [17]; 21.7 µM (inactive) in experiment [18]. For the same compound, the results for the GI50 in experiment [19] and in [20] were > 67.9 µM (inactive) and > 100 µM (inactive), respectively.

For `CCOC(=O)/C(SC#N)=C(/N)N1CCCC1`, the GI50 in experiment [1], in [2], in experiment [3], in [4], in [5] and in [6] was > 100 µM (inactive) each time. Further, the GI50 in [7], in [8], in [9], in experiment [10], in experiment [11] and in experiment [12] was > 100 µM (inactive) each time. The GI50 in experiment [13], in [14], in [15], in [16], in [17] and in [18] was > 100 µM (inactive) in each case. Moreover, the GI50 in experiment [19] and in experiment [20] was > 100 µM (inactive) throughout.

Regarding `Cn1c(=O)c2nc3c(=O)n(C)c(=O)n(CC(N)=O)c3nc2n(C)c1=O`, the GI50 in experiment [1], in experiment [3], in experiment [4], in experiment [5], in experiment [6] and in experiment [7] was > 100 µM (inactive) each time. For the same compound, the GI50 in experiment [8], in experiment [9], in experiment [10], in experiment [11], in experiment [13] and in experiment [14] was > 100 µM (inactive) each time. Further, the GI50 in [15], in experiment [16], in experiment [17], in experiment [18], in experiment [19] and in experiment [20] was > 100 µM (inactive) throughout.

As for `CNC(=S)N/N=C(\C)c1nc2cccnc2[nH]1`, the GI50 was 43.7 µM (inactive) in experiment [1]; 31.1 µM (inactive) in [2]; 24.4 µM (inactive) in experiment [3]; 33.5 µM (inactive) in [4]; 55.2 µM (inactive) in experiment [5]; 47 µM (inactive) in experiment [6]. The GI50 in [7] is 25.6 µM (inactive); in experiment [8] it was 46.6 µM (inactive); in experiment [9], 43.6 µM (inactive); in [10], 77.1 µM (inactive); in experiment [11] it was > 100 µM (inactive); in experiment [12], 31.9 µM (inactive). Further, the GI50 in experiment [13] was 38.1 µM (inactive); in experiment [15] it was 29.9 µM (inactive); in experiment [16], 18.6 µM (inactive); in [17], 30.8 µM (inactive); in experiment [18], 30.3 µM (inactive); in experiment [19] it was > 63.5 µM (inactive). Also, in experiment [20], the GI50 was 9.25 µM (inactive).
